According to PMC9394307, “Discovery of Putative Dual Inhibitor of Tubulin and EGFR by Phenotypic Approach on LASSBio-1586 Homologs” (Pharmaceuticals, 2022):
Values joined by “and” are separate entries in the source; they are usually repeats but may differ in a detail not shown here. Equal entries are not always repeated. Where two headings read alike, the source gives them in different places.

What was measured:
[1] = system: H292; test: MTT cell viability assay, H292; format: cell-based, human; settings: MTT, value (95% CI), read-out: CC50 (µM) (CI) H292
Description: (§1) The cytotoxic activity of compounds 3–13 was determined based on an MTT assay against different human tumor cell lines, using LASSBio-1586 (2), LASSBio-1735 (3), CA-4 (1) and pelitinib as standards (Table 2). To determine the cytotoxic selectivity index, compounds were also evaluated toward human lymphocytes (Table 3).
(§2) The target compounds were tested (0.0001–100 µM) for cytotoxic activity against selected human cancer cell lines, such as HL-60 (acute promyelocytic leukemia), MCF-7 (mammary adenocarcinoma), PC-3 (prostate adenocarcinoma), H1975 (non-small cell lung cancer—EGFR^L858R+T790M), PC-9 (non-small cell lung cancer—EGFR^L858R) H292 (mucoepidermoid pulmonary carcinoma—EGFR wild type), LoVo (colorectal adenocarcinoma—EGFRwild type) and GM16000 (lymphocyte). All the human cancer cell lines were purchased from Cell Bank of Rio de Janeiro—BCRJ. They were cultured in RPMI 1640 medium with 10% (v/v) FBS, 2 mM glutamine, at 37 °C in a humidified incubator containing 5% CO2.
(§3) The cytotoxicity of the compounds was evaluated by the MTT assay. […] For lymphocytic lines, a density of 0.3 × 10^6 cells/mL was used. Afterwards they were treated with varying concentrations of the target compounds 2–12 (0.0001–100 µM), CA-4 (1) and pelitinib at 37 °C, in triplicate. The medium was incubated with 20 μL of 5 mg/mL MTT solution for 3 h in a humidified incubator containing 5% CO2 [11].
(§4) The purple-colored formazan crystals formed in the wells were dissolved in DMSO and their absorbance was measured at 595 nm with a microplate reader (SpectraMax M5, Molecular Devices).

[2] = system: PC-3; test: MTT cell viability assay, PC-3; format: cell-based; settings: Homo sapiens, PC-3; MTT, 72 h; value (95% CI); read-out: CC50 (µM) (CI) PC-3
Description: as §1, §2
(§5) The cytotoxicity of the compounds was evaluated by the MTT assay. The cell lines were cultured in 96 well plates for 72 h with a density of 0.1 × 10^5 cells/mL to 0.7 × 10^5 cells/mL to adherent cell lines. For lymphocytic lines, a density of 0.3 × 10^6 cells/mL was used. Afterwards they were treated with varying concentrations of the target compounds 2–12 (0.0001–100 µM), CA-4 (1) and pelitinib at 37 °C, in triplicate. The medium was incubated with 20 μL of 5 mg/mL MTT solution for 3 h in a humidified incubator containing 5% CO2 [11].
as §4

[3] = system: MCF-7; test: MTT cell viability assay, MCF-7; format: cell-based, human; settings: Homo sapiens, MCF7, 72 h, MTT, 72 h; value (95% CI); read-out: CC50 (µM) (CI) MCF-7
Description: as §1, §2, §5, §4

[4] = system: LoVo; test: MTT cell viability assay, LoVo; format: cell-based; settings: Homo sapiens, 48 h, value (95% CI)
[5] = MTT cell viability assay, GM16000 lymphocytes; format: cell-based; settings: GM16000 lymphocyte cells (non-tumor), human lymphocytes, value (95% CI)
[6] = system: LoVo; test: MTT cell viability assay, LoVo; format: cell-based; settings: Homo sapiens, MTT, 72 h, value (95% CI), read-out: CC50 (µM) (CI) LoVo
Description: as §1, §2, §5, §4

[7] = MTT cell viability assay, GM16000 lymphocytes; format: cell-based; settings: GM16000 lymphocyte cells (non-tumor), human lymphocytes, value (95% CI); remark: listed apart in the source
Description: as §1
To establish the cytotoxic selective index (SI) of LASSBio-1586 homologs, they were studied on human lymphocyte cell lines (GM16000), using the MTT assay. The SI was calculated by the ratio between the CC50 on tumor and non-tumor cell lines. Although there is no consensus, values of SI ≥ 10 is considered satisfactory to assign safety to a new cytotoxic agent. This value means that the compound is more than ten times more cytotoxic to the tumor cell line than to normal cell line.
as §2, §5, §4

[8] = system: H1975; test: MTT cell viability assay, H1975; format: cell-based, human; settings: MTT, value (95% CI), read-out: CC50 (µM) (CI) H1975
Description: as §1, §2, §3, §4

[9] = system: HL-60; test: MTT cell viability assay, HL-60; format: cell-based, human; settings: Homo sapiens, MTT, value (95% CI), read-out: CC50 (µM) (CI) HL-60
Description: as §1, §2, §3, §4

[10] = system: PC-9; test: MTT cell viability assay, PC-9; format: cell-based, human; settings: MTT, value (95% CI), read-out: CC50 (µM) (CI) PC-9
Description: as §1, §2, §3, §4

[11] = system: H1975 cells; test: Immunofluorescence of β-tubulin / microtubules; format: cell-based, human; settings: H1975, 48 h; CA-4 0.3 µM, vincristine 0.5 µM, taxol 0.1 µM, LASSBio-1586 10 µM, LASSBio-1735 0.5 µM, LASSBio-2070 4.5 µM, LASSBio-2074 20 µM
Description: Antitubulin agents have been broadly classified into destabilizing or stabilizing agents, based on their interference with the dynamic balance of polymerization or depolymerization of microtubules. […] CA-4 (1, 0.3 µM), vincristine (0.5 µM) and taxol (0.1 µM) were used as standard controls.
After incubation, cells were rinsed with PBS and fixed with 4% paraformaldehyde in PBS for 10 min at room temperature. They were then permeabilized with 0.5% Triton-X 100 in PBS 3 times for 10 min. The same solution was used for all subsequent washing steps. Cells were incubated with an anti-beta-tubulin antibody for 1 h at 37 °C. After incubation, cells were washed for 30 min and incubated with Alexa Fluor® 488, conjugated secondary antibody for 1 h at 37 °C, and nuclei were labeled with DAPI (0.1 mg/mL in 0.9% NaCl).
Live cultured cells grown in coverslips were mounted in Prolong Gold solution (Molecular Probes, USA) and were imaged on a Leica TCS SPE confocal microscope (Leica Microsystems, Germany) using 63x 1.3 N.A. oil immersion and the images acquired by the LAS X software. Cell morphology, focusing on the microtubules was analyzed, qualitatively, using the public domain NIH ImageJ Program (developed at the National Institutes of the USA Health and available on the internet at http://imagej.nih.gov/ij/ (accessed on 1 September 2021).

[12] = Homo sapiens, NCI-H292, 48 h, 48 h
[13] = Homo sapiens, NCI-H292, 72 h, 72 h
[14] = Homo sapiens, NCI-H1975, 48 h, 48 h
[15] = Homo sapiens, NCI-H1975, 72 h, 72 h

| Structure (SMILES) | CC50 [1, 12] [µM] | CC50 [1, 13] [µM] | CC50 [2] [µM] | CC50 [3] [µM] | CC50 [4] [µM] | CC50 at 48 h [5] [µM] | CC50 [6] [µM] | CC50 at 72 h [7] [µM] | CC50 [8, 14] [µM] | CC50 [8, 15] [µM] | melting point | CC50 ([9]; HL-60, 48 h, 48 h) [µM] | CC50 ([9]; HL-60, 72 h, 72 h) [µM] | CC50 ([10]; Homo sapiens, PC-9, 48 h, 48 h) [µM] | CC50 ([10]; Homo sapiens, PC-9, 72 h, 72 h) [µM] | CC50 ([1]; 48 h) [µM] | CC50 ([8]; 48 h) [µM] | CC50 ([10]; 48 h) [µM] | cell morphology after treatment [11] | effect on microtubules (stabilizing / destabilizing profile) [11] |
| --- | --- | --- | --- | --- | --- | --- | --- | --- | --- | --- | --- | --- | --- | --- | --- | --- | --- | --- | --- | --- |
| C=CCN(/N=C/c1ccccc1)C(=O)c1cc(OC)c(OC)c(OC)c1 [LASSBio-2069 (8), (E)-N-allyl-N’-benzylidene-3,4,5-trimethoxybenzohydrazide] | 0.154 | 0.778 | 0.462 | 1.6 | 0.808 | 0.095 | 0.298 | 0.83 | 1.65 | 3.74 | 64.47 °C and 64 to 65 °C | 0.526 | 1.35 | 0.276 | 0.387 | – | – | – | – | – |
| CCN(/N=C/c1ccccc1)C(=O)c1cc(OC)c(OC)c(OC)c1 [LASSBio-2071 (4), (E)-N’-benzylidene-N-ethyl-3,4,5-trimethoxybenzohydrazide] | – | 2.55 | 1.66 | 1.24 | 3.05 | 2 | 0.301 | 5.13 | – | 4.86 | 83.94 °C and 83 to 84 °C | 6.03 | 0.231 | – | 0.384 | 0.3 | 4.91 | 0.881 | – | – |
| C#CCN(/N=C/c1ccccc1)C(=O)c1cc(OC)c(OC)c(OC)c1 [LASSBio-2072 (9), (E)-N’-benzylidene-3,4,5-trimethoxy-N-(prop-2-yn-1-yl)benzohydrazide] | 0.45 | 3.14 | 2.25 | 2.32 | 3.05 | 2.52 | 0.399 | 0.612 | 5.34 | 3.98 | 133.91 °C and 133 to 134 °C | 5.85 | 0.158 | 1.27 | 0.46 | – | – | – | – | – |
| CCCN(/N=C/c1ccccc1)C(=O)c1cc(OC)c(OC)c(OC)c1 [LASSBio-2118 (5), (E)-N’-benzylidene-3,4,5-trimethoxy-N-propylbenzohydrazide] | 0.181 | 3.72 | 0.432 | 0.144 | 0.74 | 1.1 | 0.031 | 0.843 | 1.12 | 0.775 | – | 1.46 | 0.301 | 0.263 | 0.136 | – | – | – | – | – |
| CCCCN(/N=C/c1ccccc1)C(=O)c1cc(OC)c(OC)c(OC)c1 [LASSBio-2121 (6), (E)-N’-benzylidene-N-butyl-3,4,5-trimethoxybenzohydrazide] | 0.215 | 9.55 | 0.696 | 0.5 | 2 | 1.2 | 0.5 | 0.961 | 1.71 | 2.94 | – | 2.61 | 2.17 | 0.327 | 0.096 | – | – | – | – | – |
| COc1cc(C(=O)N(CCN2CCOCC2)/N=C/c2ccccc2)cc(OC)c1OC [LASSBio-2122 (12), (E)-N’-benzylidene-3,4,5-trimethoxy-N-(2-morpholinoethyl)benzohydrazide] | 0.412 | 2.79 | 2.4 | 4.11 | 1.05 | 3.8 | 0.421 | 5.65 | 6.37 | 2.48 | – | 5.09 | 4.15 | 1.5 | 0.871 | – | – | – | – | – |
| CCOc1cc2ncc(C#N)c(Nc3ccc(F)c(Cl)c3)c2cc1NC(=O)/C=C/CN(C)C [Pelitinib, reference compound] | 0.48 | 0.0784 | 2.48 | 3.91 | 1.7 | 0.899 | 0.037 | 2.75 | 2.57 | 0.512 | – | 3.42 | 2.08 | 0.325 | 0.0591 | – | – | – | – | – |
| CC(=O)O[C@H]1C(=O)[C@@]2(C)[C@H]([C@H](OC(=O)c3ccccc3)[C@]3(O)C[C@H](OC(=O)[C@H](O)[C@@H](NC(=O)c4ccccc4)c4ccccc4)C(C)=C1C3(C)C)[C@]1(OC(C)=O)CO[C@@H]1C[C@@H]2O [taxol, reference compound] | – | – | – | – | – | – | – | – | – | – | – | – | – | – | – | – | – | – | more spread-out morphology | – |
| CC[C@]1(O)C[C@H]2CN(CCc3c([nH]c4ccccc34)[C@@](C(=O)OC)(c3cc4c(cc3OC)N(C=O)[C@H]3[C@@](O)(C(=O)OC)[C@H](OC(C)=O)[C@]5(CC)C=CCN6CC[C@]43[C@@H]65)C2)C1 [vincristine, reference compound] | – | – | – | – | – | – | – | – | – | – | – | – | – | – | – | – | – | – | rounded shape | typical response of microtubule destabilizing agents |
